{
  "source": "patent US20260069584A1",
  "about": "“METHODS OF TREATING CHRONIC MYELOID LEUKEMIA USING THE TYROSINE KINASE INHIBITOR VODOBATINIB” (Sun Pharma Advanced Research Company Ltd., priority 2022, published 2026)",
  "key": {"[1]": {"test": "Part B: treatment-emergent cardiovascular adverse events (CVAEs)", "type": "in vivo, human", "from_the_text": "For the purpose of the present invention, the adverse events were graded as per the National Cancer Institute's, Common Terminology Criteria for Adverse Events (NCI-CTCAE) Version 4.03 and Version 5.0 (https://evs.nci.nih.gov/ftp1/CTCAE/About.html). It is a descriptive terminology which can be utilized for Adverse Event (AE) reporting.\nAEs were graded as per NCI-CTCAE Version 5.0. In the present study, along with others most common AEs for which patients were monitored were thrombocytopenia, neutropenia and anemia, any AE reported by the patient after the completion of AE collection period and considered related to the study drug was reported.\nTwo CVAEs considered related to the compound of Formula I: one Grade 2 hypertension and one fatal intracranial hemorrhage (ICH) with concomitant disease progression to BP CML.\nTable 22 below lists the medical history of patients and CVAEs that were reported in the patient during treatment."}},
  "data": [
    {"molecule": "Cc1ccc(C(=O)NNC(=O)c2c(C)cccc2Cl)cc1C#Cc1cnc2ccccc2c1", "note": "[compound of Formula I, N′-(2-chloro-6-methylbenzoyl)-4-methyl-3-[2-(3-quinolyl)ethynyl]-benzohydrazide]", "values": [
      {"measurement": "TEAE cough", "setting": "Part C: adverse events; 19 subjects", "result": 21.1, "unit": "%"},
      {"measurement": "TEAE dyspnea", "setting": "Part C: adverse events; 19 subjects", "result": 21.1, "unit": "%"},
      {"measurement": "TEAE fatigue", "setting": "Part C: adverse events; 19 subjects", "result": 21.1, "unit": "%"},
      {"measurement": "TEAE nausea", "setting": "Part C: adverse events; 19 subjects", "result": 26.3, "unit": "%"},
      {"measurement": "TEAE neutropenia", "setting": "Part C: adverse events; 19 subjects", "result": 21.1, "unit": "%"},
      {"measurement": "TEAE rash", "setting": "Part C: adverse events; 19 subjects", "result": 26.3, "unit": "%"},
      {"measurement": "TEAE thrombocytopenia", "setting": "Part C: adverse events; 19 subjects", "result": 31.6, "unit": "%"},
      {"measurement": "Abdominal pain", "setting": "Part C: adverse events; All Grades (N = 19)", "result": "2 (10.5) n (%)"},
      {"measurement": "Anaemia", "setting": "Part C: adverse events; All Grades (N = 19)", "result": "3 (15.8) n (%)"},
      {"measurement": "Arthralgia", "setting": "Part C: adverse events; All Grades (N = 19)", "result": "2 (10.5) n (%)"},
      {"measurement": "Back pain", "setting": "Part C: adverse events; All Grades (N = 19)", "result": "2 (10.5) n (%)"},
      {"measurement": "COVID-19", "setting": "Part C: adverse events; All Grades (N = 19)", "result": "2 (10.5) n (%)"},
      {"measurement": "Chest pain", "setting": "Part C: adverse events; All Grades (N = 19)", "result": "2 (10.5) n (%)"},
      {"measurement": "Constipation", "setting": "Part C: adverse events; All Grades (N = 19)", "result": "3 (15.8) n (%)"},
      {"measurement": "Contusion", "setting": "Part C: adverse events; All Grades (N = 19)", "result": "2 (10.5) n (%)"},
      {"measurement": "Cough", "setting": "Part C: adverse events; All Grades (N = 19)", "result": "4 (21.1) n (%)"},
      {"measurement": "Diarrhoea", "setting": "Part C: adverse events; All Grades (N = 19)", "result": "3 (15.8) n (%)"},
      {"measurement": "Dizziness", "setting": "Part C: adverse events; All Grades (N = 19)", "result": "2 (10.5) n (%)"},
      {"measurement": "Dry skin", "setting": "Part C: adverse events; All Grades (N = 19)", "result": "3 (15.8) n (%)"},
      {"measurement": "Dyspnoea", "setting": "Part C: adverse events; All Grades (N = 19)", "result": "4 (21.1) n (%)"},
      {"measurement": "Fatigue", "setting": "Part C: adverse events; All Grades (N = 19)", "result": "4 (21.1) n (%)"},
      {"measurement": "Flank pain", "setting": "Part C: adverse events; All Grades (N = 19)", "result": "2 (10.5) n (%)"},
      {"measurement": "Headache", "setting": "Part C: adverse events; All Grades (N = 19)", "result": "3 (15.8) n (%)"},
      {"measurement": "Herpes zoster", "setting": "Part C: adverse events; All Grades (N = 19)", "result": "2 (10.5) n (%)"},
      {"measurement": "Hypertension", "setting": "Part C: adverse events; All Grades (N = 19)", "result": "3 (15.8) n (%)"},
      {"measurement": "Hyperuricaemia", "setting": "Part C: adverse events; All Grades (N = 19)", "result": "2 (10.5) n (%)"},
      {"measurement": "Hypocalcaemia", "setting": "Part C: adverse events; All Grades (N = 19)", "result": "2 (10.5) n (%)"},
      {"measurement": "Hypokalaemia", "setting": "Part C: adverse events; All Grades (N = 19)", "result": "2 (10.5) n (%)"},
      {"measurement": "Hypophosphataemia", "setting": "Part C: adverse events; All Grades (N = 19)", "result": "2 (10.5) n (%)"},
      {"measurement": "Muscle spasms", "setting": "Part C: adverse events; All Grades (N = 19)", "result": "2 (10.5) n (%)"},
      {"measurement": "Nasopharyngitis", "setting": "Part C: adverse events; All Grades (N = 19)", "result": "2 (10.5) n (%)"},
      {"measurement": "Nausea", "setting": "Part C: adverse events; All Grades (N = 19)", "result": "5 (26.3) n (%)"},
      {"measurement": "Neutropenia", "setting": "Part C: adverse events; All Grades (N = 19)", "result": "4 (21.1) n (%)"},
      {"measurement": "Oropharyngeal pain", "setting": "Part C: adverse events; All Grades (N = 19)", "result": "2 (10.5) n (%)"},
      {"measurement": "Pancytopenia", "setting": "Part C: adverse events; All Grades (N = 19)", "result": "2 (10.5) n (%)"},
      {"measurement": "Rash", "setting": "Part C: adverse events; All Grades (N = 19)", "result": "5 (26.3) n (%)"},
      {"measurement": "thrombocytopenia", "setting": "Part C: adverse events; All Grades (N = 19)", "result": "6 (31.6) n (%)"},
      {"measurement": "Abdominal pain", "setting": "Part C: adverse events; Grade 3 or 4 (N = 9)", "result": 0, "unit": "n"},
      {"measurement": "Anaemia", "setting": "Part C: adverse events; Grade 3 or 4 (N = 9)", "result": 1, "unit": "n"},
      {"measurement": "Arthralgia", "setting": "Part C: adverse events; Grade 3 or 4 (N = 9)", "result": 0, "unit": "n"},
      {"measurement": "Back pain", "setting": "Part C: adverse events; Grade 3 or 4 (N = 9)", "result": 0, "unit": "n"},
      {"measurement": "COVID-19", "setting": "Part C: adverse events; Grade 3 or 4 (N = 9)", "result": 1, "unit": "n"},
      {"measurement": "Chest pain", "setting": "Part C: adverse events; Grade 3 or 4 (N = 9)", "result": 0, "unit": "n"},
      {"measurement": "Constipation", "setting": "Part C: adverse events; Grade 3 or 4 (N = 9)", "result": 0, "unit": "n"},
      {"measurement": "Contusion", "setting": "Part C: adverse events; Grade 3 or 4 (N = 9)", "result": 0, "unit": "n"},
      {"measurement": "Cough", "setting": "Part C: adverse events; Grade 3 or 4 (N = 9)", "result": 0, "unit": "n"},
      {"measurement": "Diarrhoea", "setting": "Part C: adverse events; Grade 3 or 4 (N = 9)", "result": 1, "unit": "n"},
      {"measurement": "Dizziness", "setting": "Part C: adverse events; Grade 3 or 4 (N = 9)", "result": 0, "unit": "n"},
      {"measurement": "Dry skin", "setting": "Part C: adverse events; Grade 3 or 4 (N = 9)", "result": 0, "unit": "n"},
      {"measurement": "Dyspnoea", "setting": "Part C: adverse events; Grade 3 or 4 (N = 9)", "result": 1, "unit": "n"},
      {"measurement": "Fatigue", "setting": "Part C: adverse events; Grade 3 or 4 (N = 9)", "result": 0, "unit": "n"},
      {"measurement": "Flank pain", "setting": "Part C: adverse events; Grade 3 or 4 (N = 9)", "result": 0, "unit": "n"},
      {"measurement": "Headache", "setting": "Part C: adverse events; Grade 3 or 4 (N = 9)", "result": 0, "unit": "n"},
      {"measurement": "Herpes zoster", "setting": "Part C: adverse events; Grade 3 or 4 (N = 9)", "result": 0, "unit": "n"},
      {"measurement": "Hypertension", "setting": "Part C: adverse events; Grade 3 or 4 (N = 9)", "result": 0, "unit": "n"},
      {"measurement": "Hyperuricaemia", "setting": "Part C: adverse events; Grade 3 or 4 (N = 9)", "result": 0, "unit": "n"},
      {"measurement": "Hypocalcaemia", "setting": "Part C: adverse events; Grade 3 or 4 (N = 9)", "result": 1, "unit": "n"},
      {"measurement": "Hypokalaemia", "setting": "Part C: adverse events; Grade 3 or 4 (N = 9)", "result": 1, "unit": "n"},
      {"measurement": "Hypophosphataemia", "setting": "Part C: adverse events; Grade 3 or 4 (N = 9)", "result": 0, "unit": "n"},
      {"measurement": "Muscle spasms", "setting": "Part C: adverse events; Grade 3 or 4 (N = 9)", "result": 0, "unit": "n"},
      {"measurement": "Nasopharyngitis", "setting": "Part C: adverse events; Grade 3 or 4 (N = 9)", "result": 0, "unit": "n"},
      {"measurement": "Nausea", "setting": "Part C: adverse events; Grade 3 or 4 (N = 9)", "result": 1, "unit": "n"},
      {"measurement": "Neutropenia", "setting": "Part C: adverse events; Grade 3 or 4 (N = 9)", "result": 3, "unit": "n"},
      {"measurement": "Oropharyngeal pain", "setting": "Part C: adverse events; Grade 3 or 4 (N = 9)", "result": 0, "unit": "n"},
      {"measurement": "Pancytopenia", "setting": "Part C: adverse events; Grade 3 or 4 (N = 9)", "result": 1, "unit": "n"},
      {"measurement": "Rash", "setting": "Part C: adverse events; Grade 3 or 4 (N = 9)", "result": 0, "unit": "n"},
      {"measurement": "thrombocytopenia", "setting": "Part C: adverse events; Grade 3 or 4 (N = 9)", "result": 4, "unit": "n"},
      {"measurement": "tolerability", "setting": "Part C: adverse events; heavily pre-treated CML population", "result": "well tolerated"},
      {"measurement": "Grade 3 or 4 TEAE neutropenia", "setting": "Part C: adverse events; in vivo", "result": 33.3, "unit": "%"},
      {"measurement": "Grade 3 or 4 TEAE thrombocytopenia", "setting": "Part C: adverse events; in vivo", "result": 44.4, "unit": "%"},
      {"measurement": "patients with CVAEs", "setting": "[1]; 1 patient, less than or equal to 2 TKIs", "result": 5.5, "unit": "%"},
      {"measurement": "patients with CVAEs", "setting": "[1]; 10 patients, prior ponatinib", "result": 45.4, "unit": "%"},
      {"measurement": "CVAEs unrelated to the compound", "setting": "[1]; 12 patients with CV history", "result": 10},
      {"measurement": "patients with CVAEs", "setting": "[1]; 13 patients, more than or equal to 3 TKIs", "result": 37.1, "unit": "%"},
      {"measurement": "patients with CVAEs, any grade", "setting": "[1]; 14 patients out of 53", "result": 26.4, "unit": "%"},
      {"measurement": "Treatment-emergent cardiovascular AE: Adverse Events Cluster - Cardiac and vascular events (%)", "setting": "[1]; Overall (N = 53), Any grade", "result": "(26.4%)"},
      {"measurement": "Treatment-emergent cardiovascular AE: Angina Pectoris (%)", "setting": "[1]; Overall (N = 53), Any grade", "result": "(3.7%)"},
      {"measurement": "Treatment-emergent cardiovascular AE: Arteriosclerosis (%)", "setting": "[1]; Overall (N = 53), Any grade", "result": "(1.8%)"},
      {"measurement": "Treatment-emergent cardiovascular AE: Cerebral haemorrhage (%)", "setting": "[1]; Overall (N = 53), Any grade", "result": "(1.8%)"},
      {"measurement": "Treatment-emergent cardiovascular AE: Congestive heart failure (%)", "setting": "[1]; Overall (N = 53), Any grade", "result": "(1.8%)"}
    ]}
  ]
}
